The test system of assay [1] is 3MR mice exposed to bleomycin. The assay can be described thus: Bleomycin induced lung injury model. It counts as in vivo, mouse. Here is the method:
One animal model study assessed the effect of clearance of senescence cells in the transgenic mouse strain 3MR that has bleomycin induced lung injury. In the bleomycin injury model for idiopathic pulmonary fibrosis, mice develop lung fibrosis within 7-14 days after bleomycin treatment (see, e.g., Limjunyawong et al., 2014, Physiological Reports 2:e00249; Daniels et al., 2004, J. Clin. Invest. 114:1308-1316). Bleomycin was administered to anesthetized 6-8 week old 3MR mice by intratracheal aspiration (2.5 U/kg of bleomycin in 50 μl PBS) using a microsprayer syringe (Penn-Century, Inc.) as described in Daniels et al. (2004, J. Clin. Invest. 114:1308-1316). Control mice were administered saline. The day following bleomycin treatment, ganciclovir (GCV) (25 mg/kg in PBS) was administered. 3MR mice were treated via intraperitoneal injection with ganciclovir for 5 consecutive days, followed by 5 days of rest, followed by a second treatment cycle of 5 consecutive days. Untreated mice received an equal volume of vehicle. At 7, 14, and 21 days post-bleomycin treatment, lung function was assessed by monitoring oxygen saturation using the MouseSTAT PhysioSuite pulse oximeter (Kent Scientific). Animals were anesthetized with isoflurane (1.5%) and a toe clip was applied. Mice were monitored for 30 seconds and the average peripheral capillary oxygen saturation (SpO2) measurement over this duration was calculated. […] At 21 days post-bleomycin treatment, airway hyper-reactivity (AHR) of mice was examined. AHR of mice was measured by methacholine challenge while other parameters of lung function (airway mechanics, lung volume and lung compliance) were determined using a SCIREQ flexiVent ventilator. While under ketamine/xylazine anesthesia and subjected to cannulation of the trachea via a tracheostomy (19Fr blunt Luer cannula), airway resistance (elastance) and compliance of mice were assessed at baseline and in response to increasing concentrations of methacholine (0 to 50 mg/ml in PBS) delivered via nebulization (AeroNeb) as described in Aravamudan et al. (Am. J. Physiol. Lung Cell. Mol. Physiol. (2012) 303:L669-L681). Animals were maintained at 37° C., and while under muscle paralysis (pancuronium); airway function was measured by using the FlexiVent™ ventilator and lung mechanics system (SCIREQ, Montreal, Quebec, Canada), which was housed on Stabile 8. […] As shown in FIGS. 60B-C, bleomycin administration reduced static compliance and (dynamic) compliance in vehicle treated mice. […] Mice were euthanized by i.p injection of pentobarbital. Bronchoalveolar lavage (BAL) fluids and lungs is obtained and analyzed. Hydroxyproline content of lungs is measured as described in Christensen et al. (1999, Am. J. Pathol. 155:1773-1779), and quantitative histopathology is performed. RNA is extracted from lung tissue to measure senescence cell markers by qRT-PCR in treated and control mice.

Assay [2] concerns osteoarthritic joint of mice after ACL surgery. The assay can be described thus: Osteoarthritis mouse model (ACL surgery). It counts as in vivo. On the procedure: A table and schematic of two osteoarthritis mouse model study designs are presented in FIGS. 35 and 36, respectively. The two treatment studies were designed to determine the effect of removing senescent cells in an animal model of osteoarthritis.
Parallel studies were performed. One study investigated the effect of eliminating senescent cells with ganciclovir (GCV) in 3MR mice. Mice underwent surgery to cut the anterior cruciate ligament of one rear limb to induce osteoarthritis in the joint of that limb. During week 2 post-surgery, 3MR mice received 2.5 μg GCV to the operated knee by intra-articular injection, qd for 5 days, with a 2nd treatment (2.5 μg GCV qd for 5 days) during week 4 post-surgery. At the end of 4 weeks post-surgery, operated joints of the mice were monitored for presence of senescent cells, assessed for function, monitored for markers of inflammation, and underwent histological assessment.
In a parallel study, C57BL/6J mice underwent surgery to cut the anterior cruciate ligament of one rear limb to induce osteoarthritis in the joint of that limb. During week 3 and week 4 post-surgery, the mice were treated with 5.8 μg of Nutlin-3A (n=7) per operated knee by intra-articular injection, qod for 2 weeks. At the end of 4 weeks post-surgery, joints of the mice were monitored for presence of senescent cells, assessed for function, monitored for markers of inflammation, and underwent histological assessment.
Two control groups of mice were included in the studies performed: one group comprising C57BL/6J or 3MR mice that had undergone a sham surgery (n=3) (i.e., surgical procedures followed except for cutting the ACL) and intra-articular injections of vehicle parallel to the GCV-treated group; and one group comprising C57BL/6J or 3MR mice that had undergone an ACL surgery and received intra-articular injections of vehicle (n=5) parallel to the GCV-treated group.
RNA from the operated joints of mice from the Nutlin-3A treated mice was analyzed for expression of SASP factors (mmp3, IL-6) and senescence markers (p16). qRT-PCR was performed to detect mRNA levels. […] RNA from the operated joints of mice was also analyzed for expression of type 2 collagen and compared with expression of actin as a control.
Function of the limbs was assessed 4 weeks post-surgery by a weight bearing test to determine which leg the mice favored (FIG. 39). The mice were allowed to acclimate to the chamber on at least 3 occasions prior to taking measurements. Mice were maneuvered inside the chamber to stand with 1 hind paw on each scale. The weight that was placed on each hind limb was measured over a 3-second period. At least 3 separate measurements were made for each animal at each time point. The results were expressed as the percentage of the weight placed on the operated limb versus the contralateral unoperated limb.
The function of the limbs was also assessed at 4 weeks post-surgery by hotplate analysis to show sensitivity and reaction to pain stimulus. In brief, a mouse was placed on a hotplate at 55° C. When placed on the hot surface of the plate, mice will lift their paws and lick them (paw-lick response) due to attainment of pain threshold. The latency period for the hind limb response (paw-lick response) is recorded as response time.
Histopathology of osteoarthritis induced by ACL surgery illustrated that the proteoglycan layer was destroyed. […] Clearing of senescent cells from the 3MR mice treated with GCV, which kills senescent cells, had the same impact on pathophysiology of osteoarthritis as Nutlin-3A.

Setting [3] is: 25 mg/kg i.p., 21 days post-bleomycin.
The mark [4] stands for this setting: bleomycin exposed mouse, not statistically significant, group size too small.

As to `Nc1nc(O)c2ncn(COC(CO)CO)c2n1` [ganciclovir], the “Peripheral capillary oxygen saturation (SpO2)” value in assay [1] (25 mg/kg i.p., two cycles of 5 days, 7, 14, 21 days post-bleomycin) is recorded as “higher SpO2 levels”. For the same compound, in assay [1] (setting [3]), the Lung elastance result was “reduced lung elastance”; the “Static compliance and (dynamic) compliance” value was “improved compliance values significantly”. Besides, the “Histopathology: impact on pathophysiology of osteoarthritis” value in assay [2] (3MR mice, 2.5 μg intra-articular qd 5 days, weeks 2 and 4) is on record as “same impact”.
In the case of `COc1ccc(C2=N[C@@H](c3ccc(Cl)cc3)[C@@H](c3ccc(Cl)cc3)N2C(=O)N2CCNC(=O)C2)c(OC(C)C)c1` [Nutlin-3a], in assay [1] (setting [4]), the Lung compliance result is reported as “increased lung compliance” and the Lung elastance result was “reduced lung elastance”. Further, in assay [2] (5.8 μg per knee intra-articular, vs untreated mice), the “Type 2 collagen expression in operated joints” value was “drives collagen production”. Moreover, the “Weight bearing test (weight on operated vs unoperated limb)” value in assay [2] (4 weeks post-surgery) was “abrogates this effect”. The “Hotplate paw-lick response time” value in assay [2] (55° C., 4 weeks post-surgery) is recorded as “decreases the response time in a significant manner”. For the same compound, in assay [2] (C57BL/6J, 5.8 μg per knee intra-articular), the “Histopathology: destruction of the proteoglycan layer” value is “completely abrogated this effect”. In addition, in assay [2] (C57BL/6J, 5.8 μg per knee intra-articular qod 2 weeks, 4 weeks post-surgery), the “Senescent cells in the joint (p16 and SASP factor mRNA, qRT-PCR)” value is reported as “clears senescent cells from the joint”.

These data come from US11980616B2, “Treating liver disease by selectively eliminating senescent cells” (Buck Institute for Research on Aging, priority 2014, dated 2024).
